# Values of other authors, collected in patent US20250345309A1, “IMMUNE HEALTH IMPROVERS” (Amazentis SA, priority 2024, published 2025).
# Conditions: over 4 months, middle-aged adults (Singh et al. 2022); cited from earlier work
compound,measurement,value
O=c1oc2cc(O)ccc2c2ccc(O)cc12 [Urolithin A (UA)],Safety and tolerability of long-term oral administration,safe and well tolerated
